“Also recorded” adds a separate entry of the source.
Assays:
normal mice = experiment: oral glucose tolerance test in normal mice; format: in vivo; details: 4 g/kg glucose, oral 50, 100 mg/kg 30 min before load
Description: (§1) Mice were fasted overnight (14 h) before glucose tolerance tests. Normal mice received a 4 g/kg glucose challenge and for diabetic mice it’s 2 g/kg. WB403 at 50, 100 mg/kg, or sitagliptin at 100 mg/kg were administrated orally 30 min prior to glucose load (n = 10). For vehicle group, 0.5% CMC was administrated. Blood glucose levels were measured from tail bleeds with a glucometer (Roche, Accu-Chek Performa) at specified time points. Animals were treated and assessed in the order of the vehicle, WB403 50, 100 mg/kg and sitagliptin 100 mg/kg group.
Fig 2 Effects of WB403 on glucose tolerance during OGTT in normal and diabetic mice. OGTT time course and AUC in normal mice (A, B), HFD/STZ mice (C, D) and db/db mice (E, F). Values represent mean ± SD (n = 10). *p<0.05, **p<0.01, ***p<0.001 vs. vehicle group. Asterisks in A, C and E reflect significance between WB403 100 mg/kg and vehicle group.

db/db mice = experiment: oral glucose tolerance test in db/db mice; format: in vivo; details: 2 g/kg glucose, oral 50, 100 mg/kg 30 min before load
Description: Five-week old male ICR mice and db/db (C57BL BKS cg-M+/+ lepr-/-) mice were purchased from Shanghai SLAC Laboratory Animal Co., Ltd. (Shanghai, China). Mice were housed 4–5 per cage and allowed access to normal chow diet and autoclaved water freely. They were fed at a constant room temperature (25°C) with a 12-h light (7:00 AM)/dark (7:00 PM) cycle. All the mice were monitored at least daily, and no adverse events were observed. In general, the db/db mice show a high food intake at 4-week old and become obese and develop type 2 diabetes at 8-week age. Postprandial 2 h blood glucose was assessed and mice with the similar degree of hyperglycemia and body weight were randomized into different groups in order to get a similar average PBG in each group.
as §1
Fig 2 Effects of WB403 on glucose tolerance during OGTT in normal and diabetic mice. […]

HFD/STZ mice = experiment: 8-week treatment of HFD/STZ mice; format: in vivo
Description: For generation of nongenetic mice model of type 2 diabetes, ICR mice were fed with high fat diet (HFD, with 60% fat, Research Diets) for three weeks, then fasted for 5 h before receiving a single dose of streptozotocin (STZ, Sigma) intraperitoneally (ip) at 80 mg/kg to induce partial insulin deficiency. […] Diabetes was assessed using conventional criteria. Mice with similar degree of hyperglycemia and body weight were randomized into various groups in order to get a similar average PBG in each group.
Diabetic mice in group of four were treated by gavage with vehicle (0.5% carboxymethylcellulose, CMC, Sigma), WB403 50, 100 mg/kg or sitagliptin at 100 mg/kg daily for 4 weeks in db/db mice (n = 5 with chow diet), and 8 weeks in HFD/STZ mice (n = 8 with HFD, additional normal mice group with chow diet). During the entire dosing period, body weight, food intake and water intake were monitored three times per week, while FBG and PBG were measured weekly. Overnight fasted mice received an oral glucose challenge at 2 g/kg and postprandial 2 h blood glucose was measured. Animals were treated and assessed in the order of the vehicle, WB403 50, 100 mg/kg and sitagliptin 100 mg/kg group.
Fig 4 WB403 improved hyperglycemia of HFD/STZ mice. Mice were treated with different concentration of WB403, vehicle or sitagliptin. FBG (A) and PBG (B) were measured every week during the 8-week treatment period. (C, D) HbA1c levels in serum. Values are mean ± SEM (n = 8). *p<0.05, **p<0.01, ***p<0.001 vs. vehicle group.

hGPR119 = target: T1, hGPR119 (Homo sapiens, UniProt Q8TDV5); experiment: GPR119-dependent cAMP accumulation in transfected 293T cells; format: cell-based; details: 10, 20 μmol/l
T1 construct: host or cells: 293T cells, transient transfection with pGPR119
T1 sequence (Q8TDV5 1-335): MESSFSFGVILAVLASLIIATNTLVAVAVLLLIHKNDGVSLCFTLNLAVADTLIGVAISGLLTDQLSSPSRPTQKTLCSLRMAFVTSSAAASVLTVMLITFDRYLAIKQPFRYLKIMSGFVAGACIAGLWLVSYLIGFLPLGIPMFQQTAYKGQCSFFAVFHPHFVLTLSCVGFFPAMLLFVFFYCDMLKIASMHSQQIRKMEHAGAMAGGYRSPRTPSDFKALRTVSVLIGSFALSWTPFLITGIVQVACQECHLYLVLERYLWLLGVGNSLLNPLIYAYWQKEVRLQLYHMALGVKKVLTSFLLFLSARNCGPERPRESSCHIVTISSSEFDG
Description: For human TGR5 luciferase (luc) assay, 293T cells were co-transfected with pCRE-luc, pTGR5 (kind gift from Prof. Johan Auwerx, Ecole Polytechnique Fédérale de Lausanne, Lausanne, Switzerland) and pRenilla (Promega, USA). WB403 was added 5 h later. Cells were harvested after 16 h and subjected to luciferase analysis on Lumistar Optima chemiluminescent detector (BMG labtech, Germany). For cAMP testing, 293T cells transiently transfected with pTGR5 or pGPR119 (GeneCopoeia, USA) were washed by FBS-free DMEM, and stimulated with WB403 in FBS-free DMEM containing 3-isobutyl-1-methyl-xanthine (IBMX, Sigma). Cell lysates were collected 30 min later and used for cAMP ELISA assay. FLIPR Calcium 5 assay kit (Molecular Devices, USA) was used for calcium mobilization assay. 293-GPR40 stable cells (kindly provided by Prof. Naiming Zhou of Zhejiang University, Hanzhou, China) or 293 cells transient transfected with GPR120 were seeded at 50,000 cells per well in black-walled clear-bottomed 96-well plates (Costar). […] Increase of the intracellular Ca^2+ concentration was monitored by Flexstation 3 system (Molecular Devices, USA).
The GLP-1 (active) ELISA kit was purchased from Millipore, and insulin ELISA kit was from Mercodia. For quantitative determination of cAMP, a competitive enzyme immunoassay kit from R&D system was used. […]

[1] = HFD/STZ mice, 50, 100 mg/kg daily, from first week through 8-week treatment

CCc1cc(-c2nc(C)c(COCc3ccc(Br)cc3)s2)ccn1 [WB403, 4-(5-((4-bromobenzyloxy)-methyl)-4-methylthiazol-2-yl)-2-ethylpyridine]
blood glucose tolerance (OGTT) vs vehicle (normal mice): significant improvement in blood glucose tolerance | blood glucose tolerance (OGTT) vs vehicle (db/db mice): The same results | serum HbA1c levels vs vehicle (HFD/STZ mice; HFD/STZ mice, 8-week treatment): decreased significantly | FBG vs vehicle (HFD/STZ mice; [1]): significantly decreased | PBG vs vehicle (HFD/STZ mice; [1]): significantly decreased | hGPR119 dependent cAMP accumulation (hGPR119): did not show significant stimulation activity; also recorded: no significant stimulation effect
